The record followed here is paper PMC7181641, “Aspartate aminotransferase Rv3722c governs aspartate-dependent nitrogen metabolism in Mycobacterium tuberculosis” (Nature Communications, 2020).

The structures appear in SMILES notation.

Assay [1] addresses T1, Rv3722c (Mycobacterium tuberculosis, UniProt O69689).
Assay [2] deals with T1, Rv3722c. The source holds these as a separate data set.

T1 sequence (O69689 whole entry): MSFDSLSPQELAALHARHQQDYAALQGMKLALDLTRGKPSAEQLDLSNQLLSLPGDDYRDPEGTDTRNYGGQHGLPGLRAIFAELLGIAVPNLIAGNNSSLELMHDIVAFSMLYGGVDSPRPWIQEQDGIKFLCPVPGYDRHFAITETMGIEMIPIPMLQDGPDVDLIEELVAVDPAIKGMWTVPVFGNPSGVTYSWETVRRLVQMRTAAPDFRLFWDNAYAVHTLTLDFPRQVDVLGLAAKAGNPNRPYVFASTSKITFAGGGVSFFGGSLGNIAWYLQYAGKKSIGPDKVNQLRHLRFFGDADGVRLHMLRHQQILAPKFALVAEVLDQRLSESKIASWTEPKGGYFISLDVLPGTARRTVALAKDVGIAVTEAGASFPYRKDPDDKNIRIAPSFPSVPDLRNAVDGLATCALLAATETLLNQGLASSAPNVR

As for `N[C@@H](CCC(=O)O)C(=O)O` [Glu], in assay [1], the “X-ray crystal structure, 2.6 Å” value was “clear electron density of the amino acid in the active site”. As to `O=C(O)c1cc(O)c2ccccc2n1` [kynurenic acid], the “X-ray crystal structure, 2.23 Å” value in assay [2] is on record as “or the final keto acid product kynurenic acid (Kyna)”.

With `Nc1ccccc1C(=O)C[C@H](N)C(=O)O` [kynurenine], the “X-ray crystal structure, 2.23 Å” value in assay [2] is listed as “chains were bound to either the external aldimine intermediate PLP-kynurenine (PLP-Kyn)”. The same measure, in the same setting: the same measure for `Cc1ncc(COP(=O)(O)O)c(C=O)c1O` [pyridoxal phosphate]: “the external aldimine intermediate PLP-kynurenine (PLP-Kyn)”.
